Columns and labels:
RET (S904F) = target: T1, RET (S904F) (Homo sapiens, UniProt P07949, S904F); assay: Biochemical kinase assay; details: 10 μM ATP
T1 construct: purchased Reaction Biology Corporation (contract assay)
Method: (§1) The biochemical kinase assay was performed at Reaction Biology Corporation (www.reactionbiology.com, Malvern, Pa.) following the procedures described in the reference (Anastassiadis T, et al Nat Biotechnol. 2011, 29, 1039). Specific kinase/substrate pairs along with required cofactors were prepared in reaction buffer; 20 mM Hepes pH 7.5, 10 mM MgCl2, 1 mM EGTA, 0.02% Brij35, 0.02 mg/ml BSA, 0.1 mM Na3VO4, 2 mM DTT, 1% DMSO. Compounds were delivered into the reaction, followed ˜20 minutes later by addition of a mixture of ATP (Sigma, St. Louis Mo.) and ^33P ATP (Perkin Elmer, Waltham Mass.) to a final concentration of 10 μM. Reactions were carried out at room temperature for 120 min, followed by spotting of the reactions onto P81 ion exchange filter paper (Whatman Inc., Piscataway, N.J.). Unbound phosphate was removed by extensive washing of filters in 0.75% phosphoric acid. […] IC50 values and curve fits were obtained using Prism (GraphPad Software).

RET (S891A) = target: T2, RET (S891A) (Homo sapiens, UniProt P07949, S891A); assay: Biochemical kinase assay; details: 10 μM ATP
T2 construct: purchased Reaction Biology Corporation (contract assay)
T2 sequence (P07949 29-1114 S891A): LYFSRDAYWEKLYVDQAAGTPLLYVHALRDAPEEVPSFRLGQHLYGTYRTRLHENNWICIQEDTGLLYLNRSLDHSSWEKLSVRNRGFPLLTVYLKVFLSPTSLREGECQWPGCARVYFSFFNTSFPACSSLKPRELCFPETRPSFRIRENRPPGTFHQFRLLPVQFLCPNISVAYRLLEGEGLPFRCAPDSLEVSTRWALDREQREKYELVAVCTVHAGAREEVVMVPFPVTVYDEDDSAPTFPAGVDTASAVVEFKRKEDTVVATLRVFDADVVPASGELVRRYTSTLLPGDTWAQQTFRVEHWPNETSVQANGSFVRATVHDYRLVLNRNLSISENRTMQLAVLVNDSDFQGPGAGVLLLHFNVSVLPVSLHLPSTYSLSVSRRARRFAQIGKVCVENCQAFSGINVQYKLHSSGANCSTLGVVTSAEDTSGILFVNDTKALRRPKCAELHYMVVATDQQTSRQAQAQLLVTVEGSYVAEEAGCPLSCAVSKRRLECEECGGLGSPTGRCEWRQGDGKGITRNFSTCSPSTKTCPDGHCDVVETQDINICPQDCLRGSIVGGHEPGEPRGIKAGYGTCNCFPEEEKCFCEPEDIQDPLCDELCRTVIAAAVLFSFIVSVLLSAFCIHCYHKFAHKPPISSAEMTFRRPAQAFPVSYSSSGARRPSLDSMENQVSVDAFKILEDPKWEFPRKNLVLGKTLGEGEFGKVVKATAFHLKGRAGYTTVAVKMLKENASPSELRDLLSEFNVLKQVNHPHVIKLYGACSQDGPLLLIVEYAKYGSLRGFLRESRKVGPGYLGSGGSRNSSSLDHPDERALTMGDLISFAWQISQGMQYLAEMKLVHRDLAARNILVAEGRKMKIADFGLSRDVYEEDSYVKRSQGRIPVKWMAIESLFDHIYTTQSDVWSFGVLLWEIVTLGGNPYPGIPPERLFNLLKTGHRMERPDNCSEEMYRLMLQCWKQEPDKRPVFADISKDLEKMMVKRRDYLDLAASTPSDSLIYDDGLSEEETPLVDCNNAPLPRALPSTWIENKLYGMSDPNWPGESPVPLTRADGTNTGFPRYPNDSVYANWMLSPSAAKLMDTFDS
Method: as §1

RET (A883F) = target: T3, RET (A883F) (Homo sapiens, UniProt P07949, A883F); assay: Biochemical kinase assay; details: 10 μM ATP
T3 construct: purchased Reaction Biology Corporation (contract assay)
T3 sequence (P07949 29-1114 A883F): as the sequence (P07949 29-1114 S891A) above, with A855F, A863S counted along it
Method: as §1

RET (G691S) = target: T4, RET (G691S) (Homo sapiens, UniProt P07949, G691S); assay: Biochemical kinase assay; details: 10 μM ATP
T4 construct: purchased Reaction Biology Corporation (contract assay)
T4 sequence (P07949 29-1114 G691S): as the sequence (P07949 29-1114 S891A) above, with G663S, A863S counted along it
Method: as §1

RET (R813Q) = target: T5, RET (R813Q) (Homo sapiens, UniProt P07949, R813Q); assay: Biochemical kinase assay; details: 10 μM ATP
T5 construct: purchased Reaction Biology Corporation (contract assay)
T5 sequence (P07949 29-1114 R813Q): as the sequence (P07949 29-1114 S891A) above, with R785Q, A863S counted along it
Method: as §1

RET (L790F) = target: T6, RET (L790F) (Homo sapiens, UniProt P07949, L790F); assay: Biochemical kinase assay; details: 10 μM ATP
T6 construct: purchased Reaction Biology Corporation (contract assay)
T6 sequence (P07949 29-1114 L790F): as the sequence (P07949 29-1114 S891A) above, with L762F, A863S counted along it
Method: as §1

RET (E762Q) = target: T7, RET (E762Q) (Homo sapiens, UniProt P07949, E762Q); assay: Biochemical kinase assay; details: 10 μM ATP
T7 construct: purchased Reaction Biology Corporation (contract assay)
T7 sequence (P07949 29-1114 E762Q): as the sequence (P07949 29-1114 S891A) above, with E734Q, A863S counted along it
Method: as §1

RET (Y791F) = target: T8, RET (Y791F) (Homo sapiens, UniProt P07949, Y791F); assay: Biochemical kinase assay; details: 10 μM ATP
T8 construct: purchased Reaction Biology Corporation (contract assay)
T8 sequence (P07949 29-1114 Y791F): as the sequence (P07949 29-1114 S891A) above, with Y763F, A863S counted along it
Method: as §1

RET (V804L) = target: T9, RET (V804L) (Homo sapiens, UniProt P07949, V804L); assay: Biochemical kinase assay; details: 10 μM ATP
T9 construct: purchased Reaction Biology Corporation (contract assay)
T9 sequence (P07949 29-1114 V804L): as the sequence (P07949 29-1114 S891A) above, with V776L, A863S counted along it
Method: as §1

RET (V778I) = target: T10, RET (V778I) (Homo sapiens, UniProt P07949, V778I); assay: Biochemical kinase assay; details: 10 μM ATP
T10 construct: purchased Reaction Biology Corporation (contract assay)
T10 sequence (P07949 29-1114 V778I): as the sequence (P07949 29-1114 S891A) above, with V750I, A863S counted along it
Method: as §1

RET-CCDC6 (PTC1) = target: T11, RET-CCDC6 (PTC1) (Homo sapiens, UniProt P07949); assay: Biochemical kinase assay; details: 10 μM ATP
T11 construct: CCDC6 fragment (fusion partner); purchased Reaction Biology Corporation (contract assay); the other entry of the earlier key: CCDC6 (Q16204, Coiled-coil domain-containing protein 6)
T11 sequence (P07949 with tags, fused parts or gaps): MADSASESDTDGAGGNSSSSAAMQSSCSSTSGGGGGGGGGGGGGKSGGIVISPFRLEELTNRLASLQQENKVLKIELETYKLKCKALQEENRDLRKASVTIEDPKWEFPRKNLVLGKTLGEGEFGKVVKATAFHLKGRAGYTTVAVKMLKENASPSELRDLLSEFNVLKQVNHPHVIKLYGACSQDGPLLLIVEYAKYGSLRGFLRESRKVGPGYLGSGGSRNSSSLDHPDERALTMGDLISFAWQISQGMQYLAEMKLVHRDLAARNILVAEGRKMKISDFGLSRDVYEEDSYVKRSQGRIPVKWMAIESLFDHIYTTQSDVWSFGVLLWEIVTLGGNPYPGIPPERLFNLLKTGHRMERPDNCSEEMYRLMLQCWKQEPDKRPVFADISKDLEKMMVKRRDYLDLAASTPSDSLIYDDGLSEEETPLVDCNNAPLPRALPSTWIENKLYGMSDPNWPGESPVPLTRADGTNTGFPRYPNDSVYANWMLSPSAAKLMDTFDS
Method: as §1

RET (V804E) = target: T12, RET (V804E) (Homo sapiens, UniProt P07949, V804E); assay: Biochemical kinase assay; details: 10 μM ATP
T12 construct: purchased Reaction Biology Corporation (contract assay)
T12 sequence (P07949 29-1114 V804E): as the sequence (P07949 29-1114 S891A) above, with V776E, A863S counted along it
Method: as §1

RET (R749T) = target: T13, RET (R749T) (Homo sapiens, UniProt P07949, R749T); assay: Biochemical kinase assay; details: 10 μM ATP
T13 construct: purchased Reaction Biology Corporation (contract assay)
T13 sequence (P07949 29-1114 R749T): as the sequence (P07949 29-1114 S891A) above, with R721T, A863S counted along it
Method: as §1

RET (Y806H) = target: T14, RET (Y806H) (Homo sapiens, UniProt P07949, Y806H); assay: Biochemical kinase assay; details: 10 μM ATP
T14 construct: purchased Reaction Biology Corporation (contract assay)
T14 sequence (P07949 29-1114 Y806H): as the sequence (P07949 29-1114 S891A) above, with Y778H, A863S counted along it
Method: as §1

RET (M918T) = target: T15, RET (M918T) (Homo sapiens, UniProt P07949, M918T); assay: Biochemical kinase assay; details: 10 μM ATP
T15 construct: purchased Reaction Biology Corporation (contract assay)
T15 sequence (P07949 29-1114 M918T): as the sequence (P07949 29-1114 S891A) above, with A863S, M890T counted along it
Method: as §1

RET (S904A) = target: T16, RET (S904A) (Homo sapiens, UniProt P07949, S904A); assay: Biochemical kinase assay; details: 10 μM ATP
T16 construct: purchased Reaction Biology Corporation (contract assay)
T16 sequence (P07949 29-1114 S904A): as the sequence (P07949 29-1114 S891A) above, with A863S, S876A counted along it
Method: as §1

Ba/F3 KIF5B-RET_V804M = target: T17, Ba/F3 KIF5B-RET_V804M (Homo sapiens, UniProt P07949, V804M, cells depend on it); assay: Cell proliferation assay (CellTiter-Glo); format: cell-based; details: anti-cell proliferation, 72 hours; read-out: Ba/F3 KIF5B-RET_V804M IC50
T17 construct: fused on or other part: P33176 (Kinesin-1 heavy chain)
T17 sequence (P07949 whole entry V804M, the tested form may be a part): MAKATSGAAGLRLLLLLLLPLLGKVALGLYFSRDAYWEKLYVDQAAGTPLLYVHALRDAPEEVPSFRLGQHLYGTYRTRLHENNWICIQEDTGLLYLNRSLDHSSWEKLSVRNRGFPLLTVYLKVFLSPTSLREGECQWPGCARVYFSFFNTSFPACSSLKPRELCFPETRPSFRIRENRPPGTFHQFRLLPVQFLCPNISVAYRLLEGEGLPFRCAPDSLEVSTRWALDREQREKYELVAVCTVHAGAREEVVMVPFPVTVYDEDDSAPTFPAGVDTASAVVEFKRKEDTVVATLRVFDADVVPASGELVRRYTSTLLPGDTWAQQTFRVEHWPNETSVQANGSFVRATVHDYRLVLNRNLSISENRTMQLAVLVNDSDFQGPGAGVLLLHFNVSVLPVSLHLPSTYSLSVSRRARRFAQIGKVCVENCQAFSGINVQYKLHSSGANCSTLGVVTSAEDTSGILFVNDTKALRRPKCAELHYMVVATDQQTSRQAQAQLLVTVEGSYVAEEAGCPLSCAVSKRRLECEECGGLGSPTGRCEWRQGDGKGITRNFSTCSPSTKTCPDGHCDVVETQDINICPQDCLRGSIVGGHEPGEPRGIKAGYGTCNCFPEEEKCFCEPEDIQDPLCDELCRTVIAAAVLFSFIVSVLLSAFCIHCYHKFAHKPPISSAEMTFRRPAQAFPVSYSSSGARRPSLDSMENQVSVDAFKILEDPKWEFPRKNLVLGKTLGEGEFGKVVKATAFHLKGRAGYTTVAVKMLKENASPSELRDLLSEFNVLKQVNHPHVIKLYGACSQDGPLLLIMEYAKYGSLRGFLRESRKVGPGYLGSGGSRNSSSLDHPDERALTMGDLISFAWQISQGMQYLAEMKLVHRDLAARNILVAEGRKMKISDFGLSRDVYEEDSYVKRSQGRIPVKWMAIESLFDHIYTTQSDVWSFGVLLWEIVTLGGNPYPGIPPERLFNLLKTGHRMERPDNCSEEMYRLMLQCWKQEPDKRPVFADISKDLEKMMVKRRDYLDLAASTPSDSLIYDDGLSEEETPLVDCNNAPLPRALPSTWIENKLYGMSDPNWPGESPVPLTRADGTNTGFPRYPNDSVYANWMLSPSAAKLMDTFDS
From the text: (§2) The KIF5B-RET gene was synthesized at GenScript and cloned into pCDH-CMV-MCS-EF1-Puro plasmid (System Biosciences, Inc). KIF5B-RET point mutation V804M and G810C were generated at GenScript by PCR and confirmed by sequencing. Ba/F3-KIF5B-RET wild type and mutant were generated by transducing Ba/F3 cells with lentivirus containing KIF5B-RET wide type or mutant. Stable cell lines were selected by puromycin treatment, followed by IL-3 withdrawal. Briefly, 5×10^6 Ba/F3 cells were transduced with lentivirus supernatant in the presence of 8 μg/mL protamine sulfate. The transduced cells were subsequently selected with 1 μg/mL puromycin in the presence of IL3-containing medium RPMI1640, plus 10% FBS. After 10-12 days of selection, the surviving cells were further selected for […] independent growth.
(§3) Two thousand cells per well were seeded in 384 well white plate for 24 hrs, and then treated with compounds for 72 hours (37° C., 5% CO2). Cell proliferation was measured using CellTiter-Glo luciferase-based ATP detection assay (Promega) following the manufactures's protocol. IC50 determinations were performed using GraphPad Prism software (GraphPad, Inc., San Diego, Calif.).

Ba/F3 KIF5B-RET = target: T18, Ba/F3 KIF5B-RET (Homo sapiens, UniProt P07949); assay: Cell proliferation assay (CellTiter-Glo); format: cell-based; details: anti-cell proliferation, 72 hours; read-out: Ba/F3 KIF5B-RET IC50
T18 construct: Ba/F3 KIF5B-RET IC50 (nM); other: anti-cell proliferation, 72 hours; fused on or other part: P33176 (Kinesin-1 heavy chain)
T18 sequence (P07949 whole entry, change not shown, the tested form may be a part): as the sequence (P07949 whole entry V804M, the tested form may be a part) above, with M804V counted along it
From the text: as §2, §3

Ba/F3 KIF5B-RET_G810C = target: T19, Ba/F3 KIF5B-RET_G810C (Homo sapiens, UniProt P07949, G810C, cells depend on it); assay: Cell proliferation assay (CellTiter-Glo); format: cell-based; details: anti-cell proliferation, 72 hours; read-out: Ba/F3 KIF5B-RET_G810C IC50
T19 construct: fused on or other part: P33176 (Kinesin-1 heavy chain)
T19 sequence (P07949 whole entry G810C, the tested form may be a part): as the sequence (P07949 whole entry V804M, the tested form may be a part) above, with M804V, G810C counted along it
From the text: as §2, §3

T1 sequence (P07949 29-1114 S904F): as the sequence (P07949 29-1114 S891A) above, with A863S, S876F counted along it

- IC50 (RET (S904F)): 0.5 nM
- IC50 (RET (S891A)): 0.2 nM
- IC50 (RET (A883F)): 1.2 nM
- IC50 (RET (G691S)): 1.8 nM
- IC50 (RET (R813Q)): 1.7 nM
- IC50 (RET (L790F)): 0.4 nM
- IC50 (RET (E762Q)): 1 nM
- IC50 (RET (Y791F)): 0.4 nM
- IC50 (RET (V804L)): 6.2 nM
- IC50 (RET (V778I)): 0.1 nM
- IC50 (RET-CCDC6 (PTC1)): 0.5 nM
- IC50 (RET (V804E)): > 1000 nM
- IC50 (RET (R749T)): 0.8 nM
- IC50 (RET (Y806H)): 2.6 nM
- IC50 (RET (M918T)): 0.3 nM
- IC50 (RET (S904A)): 0.9 nM
- GI50 (Ba/F3 KIF5B-RET_V804M): 1000 nM
- GI50 (Ba/F3 KIF5B-RET): 0.25 nM
- GI50 (Ba/F3 KIF5B-RET_G810C): < 15 nM
SMILES: C[C@H]1CNC(=O)c2cnn3cc4c(nc23)N(Cc2cc(F)cnc2O1)[C@@H]1CCC[C@@H]1O4 [Compound I, (3aR,11S,20aS)-7-fluoro-11-methyl-2,3,3a,12,13,20a-hexahydro-1H,5H-17,19-(metheno)cyclopenta[5,6][1,4]oxazino[3,4-i]pyrazolo[4,3-f]pyrido[3,2-l][1,4,8,10]oxatriazacyclotridecin-14(11H)-one]

From patent publication US20220411439A1, “POLYMORPHS OF A MACROCYCLIC KINASE INHIBITOR” (TURNING POINT THERAPEUTICS, INC., priority 2019, published 2022)
